Results on two compounds are retold here after patent EP0654473A1, “Cyclopropane derivatives and antiviral agents containing the same” (Ajinomoto Co., Inc., priority 1993, dated 1995).

The test system of one data set is HSV-1 (Tomioka strain). Briefly: Efficacy test by oral administration in HSV-1 infected mice. In kind it is in vivo, CDF-1 mouse. Further details: Survival Ratio after 21 days: unit: %. Particulars: for Average Survival days / Survival Ratio after 21 days: HSV-1 i.p. infected CDF-1 mice; for Survival Ratio after 21 days: 10 mice per group. Here is the method:
A 4-week-age male CDF-1 mouse was intraperitoneally infected with HSV-1 (Tomioka strain) in an amount of 2.4 × 10⁵ pfu/mouse. Three hours after the infection, administration of each test compound was started. The test compound was dissolved in 0.2 ml of distilled water for injection use and intragastrically administered via catheter once a day for 5 days in a dose of 0.625, 1.25, or 2.5 µmol/kg/day. Each of the test groups consisted of 10 mice, and the survival ratio after 21 days from the administration and the average survival days were obtained.

Data set [1] can be described thus: Measurement of oral absorbability (plasma AUC after oral administration). Particulars: in vivo, 0.1 mmol/kg in physiological saline, male ICR mouse, plasma concentration of 9-[1'S,2'R-bis(hydroxymethyl)cyclopropan-1'-yl]methylguanine by HPLC, 15 minutes to 4 hours. Here is the method:
Each of the test compounds was dissolved in 0.2 ml of physiological saline and orally administered to 5-week-age male ICR mouse in a dose of 0.1 mmol/kg. After 15 minutes, 30 minutes, 1 hour, 2 hours, or 4 hours from the administration, blood was collected from three mice, respectively, and centrifuged at 3,000 rpm for 10 minutes to obtain a plasma. A 20 % trichloroacetic acid aqueous solution (100 µl) was added to the plasma (100 µl), and the resulting mixture was shaken and then centrifuged at 8,000 rpm for 1 minutes to obtain a supernatant. The concentration of 9-[1'S,2'R-bis(hydroxymethyl)cyclopropan-1'-yl]methylguanine in the supernatant was measured by HPLC and the area under the blood concentration time curve (AUC) was calculated.

The mark [2] stands for this setting: 0.625 µmol/kg/day intragastrically once a day for 5 days.
[3] abbreviates: 1.25 µmol/kg/day intragastrically once a day for 5 days.
Where [4] appears, read: 2.5 µmol/kg/day intragastrically once a day for 5 days.

Counter-ions that a name gives are not always drawn.

`C[C@H](N)C(=O)OC[C@@H]1C[C@@]1(COC(=O)[C@H](C)N)Cn1cnc2c(=O)[nH]c(N)nc21` [Compound of Example 1, 9-[1'S,2'R-bis(O-L-alanyloxymethyl)cyclopropan-1'-yl]methylguanine trihydrochloride]: the entries for the “Average Survival days” value in the data set on HSV-1 (Tomioka strain) (setting [2]) and with HSV-1 (Tomioka strain) (setting [3]) were 9.7 ± 2.7 days and 14.3 ± 4.1 days, respectively. Moreover, the “Survival Ratio after 21 days” value in the data set on HSV-1 (Tomioka strain) (setting [2]) amounted to 40; in the data set with HSV-1 (Tomioka strain) (setting [3]) it was 60; with HSV-1 (Tomioka strain) (setting [4]), 100. Further, in the data set with HSV-1 (Tomioka strain) (in words, compared with 9-[1'S,2'R-bis(hydroxymethyl)cyclopropan-1'-yl]methylguanine), the efficacy entry is recorded as “superior efficacy”.
The term AUC denotes concentration integrated over time. In data set [1], `Nc1nc2c(ncn2C[C@]2(CO)C[C@H]2CO)c(=O)[nH]1` [9-[1'S,2'R-bis(hydroxymethyl)cyclopropan-1'-yl]methylguanine] displayed an AUC at 4 h of 16 µM·h. The figures for the “Average Survival days” value in the data set on HSV-1 (Tomioka strain) (setting [2]), in the data set with HSV-1 (Tomioka strain) (setting [3]) and with HSV-1 (Tomioka strain) (setting [4]) were 7.8 ± 1.2 days, 9.4 ± 1.9 days and 11.3 ± 3.1 days, respectively. Moreover, the entries for the “Survival Ratio after 21 days” value in the data set on HSV-1 (Tomioka strain) (setting [2]), in the data set on HSV-1 (Tomioka strain) (setting [3]) and with HSV-1 (Tomioka strain) (setting [4]) were 0, 0 and 60, respectively.
